Laboratory results from ChEMBL document CHEMBL1201862, “PubChem BioAssay data set” (2004).
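Step 1: Grow cells in 96-well plates. Step 2: Expose to compound for 48 hours at 5 concentrations. Step 3: Interpolate endpoints linearly; if unreached, use highest concentration. GI50 marks 50% less growth.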 The source made the active and inactive calls. No stated cut-off is given here; in the data, active = GI50 up to about 1.1 µM and inactive = higher.

Key:
Assay in all cases: NCI tumour cell line growth inhibition, 48 h
TK-10 = tested on: TK-10
SF-268 = tested on: SF-268
COLO 205 = tested on: COLO 205
RPMI-8226 = tested on: RPMI-8226
SNB-78 = tested on: SNB-78
U-251 = tested on: U-251
EKVX = tested on: EKVX
SNB-19 = tested on: SNB-19
SF-295 = tested on: SF-295
KM-20L2 = tested on: KM-20L2
HOP-92 = tested on: HOP-92
UO-31 = tested on: UO-31
DLD-1 = tested on: DLD-1
CAKI-1 = tested on: CAKI-1
MOLT-4 = tested on: MOLT-4
OVCAR-8 = tested on: OVCAR-8
HOP-18 = tested on: HOP-18
UACC-257 = tested on: UACC-257
SK-OV-3 = tested on: SK-OV-3
KM12 = tested on: KM12
HCT-15 = tested on: HCT-15
HOP-62 = tested on: HOP-62
Malme-3M = tested on: Malme-3M
A498 = tested on: A498
SN12C = tested on: SN12C
NCI-H460 = tested on: NCI-H460
LXFL 529 = tested on: LXFL 529
M19-MEL = tested on: M19-MEL
UACC-62 = tested on: UACC-62
K562 = tested on: K562
A549 = tested on: A549
OVCAR-4 = tested on: OVCAR-4
DMS-114 = tested on: DMS-114
IGROV-1 = tested on: IGROV-1
HT-29 = tested on: HT-29
SK-MEL-2 = tested on: SK-MEL-2
OVCAR-3 = tested on: OVCAR-3
ACHN = tested on: ACHN
SNB-75 = tested on: SNB-75
SR = tested on: SR
M14 = tested on: M14
786-0 = tested on: 786-0
HCC 2998 = tested on: HCC 2998
RXF 631 = tested on: RXF 631
NCI-H522 = tested on: NCI-H522
HCT-116 = tested on: HCT-116
SK-MEL-5 = tested on: SK-MEL-5
XF498 = tested on: XF498
SK-MEL-28 = tested on: SK-MEL-28
NCI-H23 = tested on: NCI-H23
HL-60 = tested on: HL-60
NCI-H226 = tested on: NCI-H226
LOX IMVI = tested on: LOX IMVI
RXF 393 = tested on: RXF 393
SF-539 = tested on: SF-539
CCRF-CEM = tested on: CCRF-CEM
OVCAR-5 = tested on: OVCAR-5
DMS-273 = tested on: DMS-273
SW-620 = tested on: SW-620

Q: Which GI50 (TK-10) does the source give for `C/C(CC(=O)NC1=CC=C(NC(=O)C/C(C)=N\Nc2ccccc2)CC1)=N/Nc1ccccc1` here?
A: > 100 µM (inactive)

Q: What about the GI50 (SF-268) of the same compound?
A: > 100 µM (inactive)

Q: What about the GI50 (COLO 205) of the same compound?
A: 27.1 µM (inactive)

Q: What about the GI50 (RPMI-8226) of the same compound?
A: > 100 µM (inactive)

Q: What about the GI50 (SNB-78) of the same compound?
A: > 100 µM (inactive)

Q: And the GI50 (U-251)?
A: > 100 µM (inactive)

Q: What about the GI50 (EKVX) of the same compound?
A: > 100 µM (inactive)

Q: What about the GI50 (SNB-19) of the same compound?
A: > 100 µM (inactive)

Q: And the GI50 (SF-295)?
A: > 100 µM (inactive)

Q: What about the GI50 (KM-20L2) of the same compound?
A: > 100 µM (inactive)

Q: What about the GI50 (HOP-92) of the same compound?
A: > 100 µM (inactive)

Q: What about the GI50 (UO-31) of the same compound?
A: > 100 µM (inactive)

Q: And the GI50 (DLD-1)?
A: > 100 µM (inactive)

Q: And the GI50 (CAKI-1)?
A: > 100 µM (inactive)

Q: And the GI50 (MOLT-4)?
A: > 100 µM (inactive)

Q: And the GI50 (OVCAR-8)?
A: > 100 µM (inactive)

Q: What about the GI50 (HOP-18) of the same compound?
A: > 100 µM (inactive)

Q: What about the GI50 (UACC-257) of the same compound?
A: > 100 µM (inactive)

Q: What about the GI50 (SK-OV-3) of the same compound?
A: > 100 µM (inactive)

Q: And the GI50 (KM12)?
A: > 100 µM (inactive)

Q: And the GI50 (HCT-15)?
A: 29.7 µM

Q: And the GI50 (HOP-62)?
A: > 100 µM (inactive)

Q: And the GI50 (Malme-3M)?
A: > 100 µM (inactive)

Q: What about the GI50 (A498) of the same compound?
A: > 100 µM (inactive)

Q: And the GI50 (SN12C)?
A: > 100 µM (inactive)

Q: And the GI50 (NCI-H460)?
A: > 100 µM (inactive)

Q: And the GI50 (LXFL 529)?
A: > 100 µM (inactive)

Q: And the GI50 (M19-MEL)?
A: > 100 µM (inactive)

Q: What about the GI50 (UACC-62) of the same compound?
A: > 100 µM (inactive)

Q: And the GI50 (K562)?
A: 75.7 µM (inactive)

Q: What about the GI50 (A549) of the same compound?
A: > 100 µM (inactive)

Q: And the GI50 (OVCAR-4)?
A: > 100 µM (inactive)

Q: And the GI50 (DMS-114)?
A: > 100 µM (inactive)

Q: And the GI50 (IGROV-1)?
A: > 100 µM (inactive)

Q: What about the GI50 (HT-29) of the same compound?
A: > 100 µM (inactive)

Q: And the GI50 (SK-MEL-2)?
A: > 100 µM (inactive)

Q: What about the GI50 (OVCAR-3) of the same compound?
A: > 100 µM (inactive)

Q: And the GI50 (ACHN)?
A: > 100 µM (inactive)

Q: And the GI50 (SNB-75)?
A: > 100 µM (inactive)

Q: And the GI50 (SR)?
A: 37.8 µM (inactive)

Q: What about the GI50 (M14) of the same compound?
A: > 100 µM (inactive)

Q: What about the GI50 (786-0) of the same compound?
A: > 100 µM (inactive)

Q: And the GI50 (HCC 2998)?
A: > 100 µM (inactive)

Q: And the GI50 (RXF 631)?
A: 41.4 µM (inactive)

Q: What about the GI50 (NCI-H522) of the same compound?
A: 72.6 µM (inactive)

Q: What about the GI50 (HCT-116) of the same compound?
A: > 100 µM (inactive)

Q: And the GI50 (SK-MEL-5)?
A: > 100 µM (inactive)

Q: What about the GI50 (XF498) of the same compound?
A: > 100 µM (inactive)

Q: And the GI50 (SK-MEL-28)?
A: > 100 µM (inactive)

Q: And the GI50 (NCI-H23)?
A: > 100 µM (inactive)

Q: And the GI50 (HL-60)?
A: 50.1 µM (inactive)

Q: What about the GI50 (NCI-H226) of the same compound?
A: > 100 µM (inactive)

Q: What about the GI50 (LOX IMVI) of the same compound?
A: 70.8 µM (inactive)

Q: And the GI50 (RXF 393)?
A: > 100 µM (inactive)

Q: And the GI50 (SF-539)?
A: > 100 µM (inactive)

Q: What about the GI50 (CCRF-CEM) of the same compound?
A: > 100 µM (inactive)

Q: What about the GI50 (OVCAR-5) of the same compound?
A: > 100 µM (inactive)

Q: What about the GI50 (DMS-273) of the same compound?
A: 27 µM (inactive)

Q: `COc1cc(CCc2ccncc2)cc(OC)c1OC` was tested. Which GI50 (TK-10) did it give?
A: > 100 µM (inactive)

Q: And the GI50 (SF-268)?
A: > 100 µM (inactive)

Q: What about the GI50 (COLO 205) of the same compound?
A: > 100 µM (inactive)

Q: And the GI50 (RPMI-8226)?
A: > 100 µM (inactive)

Q: What about the GI50 (SNB-78) of the same compound?
A: > 100 µM (inactive)

Q: And the GI50 (U-251)?
A: > 100 µM (inactive)

Q: And the GI50 (EKVX)?
A: > 100 µM (inactive)

Q: What about the GI50 (SNB-19) of the same compound?
A: > 100 µM (inactive)

Q: What about the GI50 (SF-295) of the same compound?
A: > 100 µM (inactive)

Q: What about the GI50 (KM-20L2) of the same compound?
A: > 100 µM (inactive)

Q: And the GI50 (HOP-92)?
A: > 100 µM (inactive)

Q: And the GI50 (UO-31)?
A: > 100 µM (inactive)

Q: What about the GI50 (DLD-1) of the same compound?
A: > 100 µM (inactive)

Q: And the GI50 (CAKI-1)?
A: > 100 µM (inactive)

Q: What about the GI50 (MOLT-4) of the same compound?
A: > 100 µM (inactive)

Q: What about the GI50 (OVCAR-8) of the same compound?
A: > 100 µM (inactive)

Q: What about the GI50 (HOP-18) of the same compound?
A: > 100 µM (inactive)

Q: And the GI50 (UACC-257)?
A: > 100 µM (inactive)

Q: What about the GI50 (SW-620) of the same compound?
A: > 100 µM (inactive)

Q: And the GI50 (KM12)?
A: > 100 µM (inactive)

Q: What about the GI50 (HCT-15) of the same compound?
A: > 100 µM

Q: What about the GI50 (HOP-62) of the same compound?
A: > 100 µM (inactive)

Q: And the GI50 (Malme-3M)?
A: > 100 µM (inactive)

Q: What about the GI50 (A498) of the same compound?
A: > 100 µM (inactive)

Q: And the GI50 (SN12C)?
A: > 100 µM (inactive)

Q: What about the GI50 (NCI-H460) of the same compound?
A: > 100 µM (inactive)

Q: What about the GI50 (LXFL 529) of the same compound?
A: > 100 µM (inactive)

Q: And the GI50 (M19-MEL)?
A: > 100 µM (inactive)

Q: What about the GI50 (UACC-62) of the same compound?
A: > 100 µM (inactive)

Q: And the GI50 (K562)?
A: > 100 µM (inactive)

Q: What about the GI50 (A549) of the same compound?
A: > 100 µM (inactive)

Q: What about the GI50 (OVCAR-4) of the same compound?
A: > 100 µM (inactive)

Q: What about the GI50 (DMS-114) of the same compound?
A: > 100 µM (inactive)

Q: And the GI50 (IGROV-1)?
A: > 100 µM (inactive)

Q: And the GI50 (HT-29)?
A: > 100 µM (inactive)

Q: And the GI50 (OVCAR-3)?
A: > 100 µM (inactive)

Q: What about the GI50 (ACHN) of the same compound?
A: > 100 µM (inactive)

Q: And the GI50 (SNB-75)?
A: > 100 µM (inactive)

Q: And the GI50 (M14)?
A: > 100 µM (inactive)

Q: And the GI50 (786-0)?
A: > 100 µM (inactive)

Q: And the GI50 (RXF 631)?
A: > 100 µM (inactive)

Q: What about the GI50 (NCI-H522) of the same compound?
A: > 100 µM (inactive)

Q: And the GI50 (HCT-116)?
A: > 100 µM (inactive)

Q: And the GI50 (SK-MEL-5)?
A: > 100 µM (inactive)

Q: What about the GI50 (XF498) of the same compound?
A: > 100 µM (inactive)

Q: And the GI50 (SK-MEL-28)?
A: > 100 µM (inactive)

Q: What about the GI50 (NCI-H23) of the same compound?
A: > 100 µM (inactive)

Q: What about the GI50 (HL-60) of the same compound?
A: > 100 µM (inactive)

Q: What about the GI50 (NCI-H226) of the same compound?
A: > 100 µM (inactive)

Q: What about the GI50 (LOX IMVI) of the same compound?
A: > 100 µM (inactive)

Q: And the GI50 (RXF 393)?
A: > 100 µM (inactive)

Q: What about the GI50 (SF-539) of the same compound?
A: > 100 µM (inactive)

Q: What about the GI50 (CCRF-CEM) of the same compound?
A: > 100 µM (inactive)

Q: And the GI50 (OVCAR-5)?
A: > 100 µM (inactive)

Q: What about the GI50 (DMS-273) of the same compound?
A: > 100 µM (inactive)
